Source: patent publication US20260374756A1, “HETEROCYCLIC COMPOUNDS AS INHIBITORS OF MONOACYLGLYCEROL LIPASE (MAGL)” (Hoffmann-La Roche Inc., priority 2022, published 2026)

target: T1, hMAGL (Homo sapiens, UniProt Q99685); assay: 2-AG assay: MAGL inhibition, hydrolysis of 2-arachidonoylglycerol to arachidonic acid followed by mass spectrometry; assay type: biochemical
T1 sequence (Q99685 1-303): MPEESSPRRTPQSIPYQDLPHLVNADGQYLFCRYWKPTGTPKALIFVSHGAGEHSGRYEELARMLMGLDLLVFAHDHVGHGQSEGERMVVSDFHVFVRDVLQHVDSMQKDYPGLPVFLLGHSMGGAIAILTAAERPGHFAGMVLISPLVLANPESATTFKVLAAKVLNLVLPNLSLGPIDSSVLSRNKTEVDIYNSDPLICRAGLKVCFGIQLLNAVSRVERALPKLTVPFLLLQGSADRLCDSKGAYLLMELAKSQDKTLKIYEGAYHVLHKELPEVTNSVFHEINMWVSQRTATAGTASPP
Method in brief: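 Read-out is LC-MS/MS of arachidonic acid released from 2-arachidonoylglycerol (8 μM final), normalised to d8-arachidonic acid internal standard after acetonitrile quench. Enzyme […] and compound were pre-mixed 15 min, then reacted 30 min, both at RT, in Tris/EDTA buffer with 0.01% Tween-20 and 2.5% DMSO.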

In order of falling IC50:
1. O=C(N1CC2(CC(n3cnc(C(F)(F)F)n3)C2)C1)N1CC2(CN(Cc3cnn(C(F)(F)F)c3)C2)C1 [Example 181, [6-[[1-(trifluoromethyl)pyrazol-4-yl]methyl]-2,6-diazaspiro[3.3]heptan-2-yl]-[6-[3-(trifluoromethyl)-1,2,4-triazol-1-yl]-2-azaspiro[3.3]heptan-2-yl]methanone]  133 nM
2. O=C(N1CC2(CC(n3cnc(C4(O)CC4)n3)C2)C1)N1CC2(CN(Cc3ncc(C(F)F)s3)C2)C1 [Example 186]  84.1 nM
3. O=C(N1CC2(CCN(Cc3nc(C(F)(F)F)cs3)CC2)C1)N1CC2(CC(n3cnc(C4(O)CC4)n3)C2)C1 [Example 175, [6-[3-(1-hydroxycyclopropyl)-1,2,4-triazol-1-yl]-2-azaspiro[3.3]heptan-2-yl]-[7-[[4-(trifluoromethyl)thiazol-2-yl]methyl]-2,7-diazaspiro[3.5]nonan-2-yl]methanone]  81.2 nM
4. O=C(N1CC2(CC(n3cnc(C(F)(F)F)n3)C2)C1)N1CC2(CN(Cc3nc(C(F)(F)F)no3)C2)C1 [Example 172, [6-[[3-(trifluoromethyl)-1,2,4-oxadiazol-5-yl]methyl]-2,6-diazaspiro[3.3]heptan-2-yl]-[6-[3-(trifluoromethyl)-1,2,4-triazol-1-yl]-2-azaspiro[3.3]heptan-2-yl]methanone]  55 nM
5. O=C(N1CC2(CC(n3cnc(C(F)(F)F)n3)C2)C1)N1CC2(CN(Cc3cc(C(F)(F)F)on3)C2)C1 [Example 189, [6-[[5-(trifluoromethyl)isoxazol-3-yl]methyl]-2,6-diazaspiro[3.3]heptan-2-yl]-[6-[3-(trifluoromethyl)-1,2,4-triazol-1-yl]-2-azaspiro[3.3]heptan-2-yl]methanone]  50.1 nM
6. CCn1nc(C(F)(F)F)cc1CN1CC2(C1)CN(C(=O)N1CC3(CC(n4cnc(C5(O)CC5)n4)C3)C1)C2 [Example 168, [6-[[2-ethyl-5-(trifluoromethyl)pyrazol-3-yl]methyl]-2,6-diazaspiro[3.3]heptan-2-yl]-[6-[3-(1-hydroxycyclopropyl)-1,2,4-triazol-1-yl]-2-azaspiro[3.3]heptan-2-yl]methanone]  45.6 nM
7. O=C(N1CC2(CCN(Cc3nc(C(F)(F)F)cs3)CC2)C1)N1CC2(CC(n3cnc(C(F)(F)F)n3)C2)C1 [Example 176, [7-[[4-(trifluoromethyl)thiazol-2-yl]methyl]-2,7-diazaspiro[3.5]nonan-2-yl]-[6-[3-(trifluoromethyl)-1,2,4-triazol-1-yl]-2-azaspiro[3.3]heptan-2-yl]methanone]  44.8 nM
8. O=C(N1CC2(CC(n3cnc(C4CC4)n3)C2)C1)N1CC2(CN(Cc3cnn(C(F)(F)F)c3)C2)C1 [Example 182, [6-(3-cyclopropyl-1,2,4-triazol-1-yl)-2-azaspiro[3.3]heptan-2-yl]-[6-[[1-(trifluoromethyl)pyrazol-4-yl]methyl]-2,6-diazaspiro[3.3]heptan-2-yl]methanone]  33.9 nM
9. O=C(N1CC2(CC(n3cnc(C(F)(F)F)n3)C2)C1)N1CC2(CN(Cc3cc(C(F)(F)F)no3)C2)C1 [Example 183, [6-[[3-(trifluoromethyl)isoxazol-5-yl]methyl]-2,6-diazaspiro[3.3]heptan-2-yl]-[6-[3-(trifluoromethyl)-1,2,4-triazol-1-yl]-2-azaspiro[3.3]heptan-2-yl]methanone]  28.4 nM
10. Cn1ncc(CN2CC3(C2)CN(C(=O)N2CC4(CC(n5cnc(C(F)(F)F)n5)C4)C2)C3)c1C(F)(F)F [Example 164, [6-[[1-methyl-5-(trifluoromethyl)pyrazol-4-yl]methyl]-2,6-diazaspiro[3.3]heptan-2-yl]-[6-[3-(trifluoromethyl)-1,2,4-triazol-1-yl]-2-azaspiro[3.3]heptan-2-yl]methanone]  27.3 nM
11. O=C(N1CC2(CC(c3cc(C4CC4)n[nH]3)C2)C1)N1CC2(CN(Cc3cnn(C(F)(F)F)c3)C2)C1 [Example 180, [6-(3-cyclopropyl-1H-pyrazol-5-yl)-2-azaspiro[3.3]heptan-2-yl]-[6-[[1-(trifluoromethyl)pyrazol-4-yl]methyl]-2,6-diazaspiro[3.3]heptan-2-yl]methanone]  23.4 nM
12. Cn1nc(C(F)(F)F)cc1CN1CC2(C1)CN(C(=O)N1CC3(CC(n4cnc(C(F)(F)F)n4)C3)C1)C2 [Example 166]  20.3 nM
13. O=C(N1CC2(CC(n3cnc(C(F)(F)F)n3)C2)C1)N1CC2(CN(Cc3ncc(C(F)F)s3)C2)C1 [Example 187, [6-[[5-(difluoromethyl)thiazol-2-yl]methyl]-2,6-diazaspiro[3.3]heptan-2-yl]-[6-[3-(trifluoromethyl)-1,2,4-triazol-1-yl]-2-azaspiro[3.3]heptan-2-yl]methanone]  15.3 nM
14. O=C(N1CC2(CC(n3cnc(C4CC4)n3)C2)C1)N1CC2(CN(Cc3nc(C(F)(F)F)no3)C2)C1 [Example 173, [6-(3-cyclopropyl-1,2,4-triazol-1-yl)-2-azaspiro[3.3]heptan-2-yl]-[6-[[3-(trifluoromethyl)-1,2,4-oxadiazol-5-yl]methyl]-2,6-diazaspiro[3.3]heptan-2-yl]methanone]  11.9 nM
15. O=C(N1CC2(CC(n3cnc(C(F)(F)F)n3)C2)C1)N1CC2(CN(Cc3sncc3C(F)(F)F)C2)C1 [Example 178, [6-[[4-(trifluoromethyl)isothiazol-5-yl]methyl]-2,6-diazaspiro[3.3]heptan-2-yl]-[6-[3-(trifluoromethyl)-1,2,4-triazol-1-yl]-2-azaspiro[3.3]heptan-2-yl]methanone]  10.5 nM
16. O=C(N1CC2(CC(c3cc(C4CC4)n[nH]3)C2)C1)N1CC2(CN(Cc3nc(C(F)(F)F)no3)C2)C1 [Example 171, [6-(3-cyclopropyl-1H-pyrazol-5-yl)-2-azaspiro[3.3]heptan-2-yl]-[6-[[3-(trifluoromethyl)-1,2,4-oxadiazol-5-yl]methyl]-2,6-diazaspiro[3.3]heptan-2-yl]methanone]  9.95 nM
17. O=C(N1CC2(CCN(Cc3nc(C(F)(F)F)cs3)CC2)C1)N1CC2(CC(n3cnc(C4CC4)n3)C2)C1 [Example 177, [6-(3-cyclopropyl-1,2,4-triazol-1-yl)-2-azaspiro[3.3]heptan-2-yl]-[7-[[4-(trifluoromethyl)thiazol-2-yl]methyl]-2,7-diazaspiro[3.5]nonan-2-yl]methanone]  9.83 nM
18. CCn1nc(C(F)(F)F)cc1CN1CC2(C1)CN(C(=O)N1CC3(CC(n4cnc(C(F)(F)F)n4)C3)C1)C2 [Example 169]  8.89 nM
19. O=C(N1CC2(CC(n3cnc(C4CC4)n3)C2)C1)N1CC2(CN(Cc3cc(C(F)(F)F)no3)C2)C1 [Example 184, [6-(3-cyclopropyl-1,2,4-triazol-1-yl)-2-azaspiro[3.3]heptan-2-yl]-[6-[[3-(trifluoromethyl)isoxazol-5-yl]methyl]-2,6-diazaspiro[3.3]heptan-2-yl]methanone]  6.68 nM
20. Cn1nc(C(F)(F)F)cc1CN1CC2(C1)CN(C(=O)N1CC3(CC(n4cnc(C5CC5)n4)C3)C1)C2 [Example 167, [6-(3-cyclopropyl-1,2,4-triazol-1-yl)-2-azaspiro[3.3]heptan-2-yl]-[6-[[2-methyl-5-(trifluoromethyl)pyrazol-3-yl]methyl]-2,6-diazaspiro[3.3]heptan-2-yl]methanone]  5.6 nM
21. O=C(N1CC2(CCN(Cc3nc(C(F)(F)F)cs3)CC2)C1)N1CC2(CC(c3cc(C4CC4)n[nH]3)C2)C1 [Example 174, [6-(3-cyclopropyl-1H-pyrazol-5-yl)-2-azaspiro[3.3]heptan-2-yl]-[7-[[4-(trifluoromethyl)thiazol-2-yl]methyl]-2,7-diazaspiro[3.5]nonan-2-yl]methanone]  4.84 nM
22. Cn1ncc(CN2CC3(C2)CN(C(=O)N2CC4(CC(n5cnc(C6CC6)n5)C4)C2)C3)c1C(F)(F)F [Example 165, [6-(3-cyclopropyl-1,2,4-triazol-1-yl)-2-azaspiro[3.3]heptan-2-yl]-[6-[[1-methyl-5-(trifluoromethyl)pyrazol-4-yl]methyl]-2,6-diazaspiro[3.3]heptan-2-yl]methanone]  4.46 nM
23. O=C(N1CC2(CC(n3cnc(C4CC4)n3)C2)C1)N1CC2(CN(Cc3ncc(C(F)F)s3)C2)C1 [Example 188, [6-(3-cyclopropyl-1,2,4-triazol-1-yl)-2-azaspiro[3.3]heptan-2-yl]-[6-[[5-(difluoromethyl)thiazol-2-yl]methyl]-2,6-diazaspiro[3.3]heptan-2-yl]methanone]  3.94 nM
24. O=C(N1CC2(CC(c3cc(C4CC4)n[nH]3)C2)C1)N1CC2(CN(Cc3ncc(C(F)F)s3)C2)C1 [Example 185, [6-(3-cyclopropyl-1H-pyrazol-5-yl)-2-azaspiro[3.3]heptan-2-yl]-[6-[[5-(difluoromethyl)thiazol-2-yl]methyl]-2,6-diazaspiro[3.3]heptan-2-yl]methanone]  3.44 nM
25. CCn1nc(C(F)(F)F)cc1CN1CC2(C1)CN(C(=O)N1CC3(CC(n4cnc(C5CC5)n4)C3)C1)C2 [Example 170, [6-(3-cyclopropyl-1,2,4-triazol-1-yl)-2-azaspiro[3.3]heptan-2-yl]-[6-[[2-ethyl-5-(trifluoromethyl)pyrazol-3-yl]methyl]-2,6-diazaspiro[3.3]heptan-2-yl]methanone]  2.23 nM
26. O=C(N1CC2(CC(n3cnc(C4CC4)n3)C2)C1)N1CC2(CN(Cc3sncc3C(F)(F)F)C2)C1 [Example 179, [6-(3-cyclopropyl-1,2,4-triazol-1-yl)-2-azaspiro[3.3]heptan-2-yl]-[6-[[4-(trifluoromethyl)isothiazol-5-yl]methyl]-2,6-diazaspiro[3.3]heptan-2-yl]methanone]  2 nM
